According to patent US20100197610A1, “FRUCTOSE 1, 6 BISPHOSPHATE - A NOVEL ANTICONVULSANT DRUG” (Baylor College of Medicine, priority 2007, published 2010):

Columns and labels:
[1] = system: PTZ-induced generalized tonic-clonic seizures; experiment: PTZ model of acute seizures; assay type: in vivo, Sprague Dawley rats
Procedure: All animal experiments were carried out in accordance with the National Institutes of Health guide for the care and use of laboratory animals (NIH publication 8023, revised 1996) and with the approval of the local Animal Use Committee. Unless indicated, all chemicals were obtained from Sigma Chemical Co (St. Louis Mo.). Male, Sprague Dawley rats weighing 50-74 g (young) or 147-309 g (adult) were used in this study. Acute seizures were induced by kainic acid (KA; Ocean Produce Int., Canada), pilocarpine or pentylenetetrazole (PTZ) as previously described (Lian et al 2006). These models were chosen because they initiate seizures by different mechanisms and the seizures have a relatively gradual onset compared to seizures initiated by stimulation. There was no difference in the body weight of the animals receiving the different convulsants. For pilocarpine, kainic acid and PTZ, the mean weights were 219±5 g (range 163-275 g), 215±7 g (range 183-258 g), and 216±13 g (range 147-309 g), respectively. The animals in the drug treatment groups were not different in weight from the animals in the control groups.
After administration of KA (10 mg/kg, ip), pilocarpine (scopolamine methyl bromide 1 mg/kg, s.c followed 15 min later by 300 mg/kg, ip pilocarpine) or PTZ (50 mg/kg, ip) (Lian et al., 2006), animals were continuously monitored for seizure activity for at least 5 h after KA or pilocarpine and for 30 min after PTZ. Behavioral seizures were scored by an investigator blinded to the treatment. Latency to the first wet dog shake after KA, latency to the first forelimb clonus (after pilocarpine, kainic acid or PTZ) and the score and duration of seizures were measured. When at least 1 hour had passed without any head bobbing (for pilocarpine) or any wet dog shakes (for KA), seizures were considered over. Status epilepticus lasting longer than 4 hours (for KA) or 5 hours (for pilocarpine) were assigned 4 and 5 hours for seizure duration. For animals receiving PTZ, the seizure duration was defined as the period of tonic-clonic seizures. EEG recording in the hippocampus was conducted as previously described (Lian et al., 2004). After anesthesia, a recording electrode was placed in a burr hole centered at 3.0 mm posterior to bregma, 1.8 mm lateral to the midline and then lowered 3.0 mm. A ground screw and wire was placed over the frontal region in another burr hole. This assembly was fixed to the skull with dental cement.
Adult rats received either D-F1,6BP, sodium valproate (VPA, 0.3 g/kg), 2-DG (0.25, 0.5 g/kg) or normal saline (vehicle) intraperitoneally followed 1 h later by one of the convulsants. The dose for VPA was based on experimental evidence that doses from 0.1 to 0.4 g/kg (ip) are effective in animal models (Bough and Eagles, 2001; Manent et al., 2007). Three doses of F1,6BP (0.25, 0.5 and 1 g/kg) were tested with this dosing schedule. Two additional groups were administered F1,6BP (0.5 or 1 g/kg, n=5) after pilocarpine. In this experiment, the F1,6BP was given intraperitoneally at the first behavioral seizure, which was chewing movements of the jaw. Two additional sets of animals were fed the classic ketogenic diet (No. F3666; Bio-Serv, Frenchtown, N.J.). One set of animals was given the diet beginning on postnatal day 22-26 (KD-Yng) and maintained on this diet for 4 weeks. Thus the seizures were tested in this group when the animals had reached approximately the same age (50-54 days) as the majority of the animals tested.
The latency to seizure onset, seizure score and seizure duration were averaged across animals in each group. Comparisons between groups were done with an analysis of variance with Bonferroni post hoc test. Statistical difference was defined as p<0.05.

[2] = system: spontaneous seizures after pilocarpine-induced status epilepticus; experiment: Oral FDP against spontaneous seizures after pilocarpine-induced status epilepticus; assay type: in vivo; details: FDP 0.5% in drinking water
Procedure: Animals (n=14) were treated with pilocarpine to induce status epilepticus and subsequent spontaneous seizures. Four weeks later daily observation was begun and the number of seizures per day was determined for at least 6 days. The mean number of seizures per day over a 6 day period was determined for each animal and this was normalized to 100%. Half of the animals then had FDP added to the drinking water at a concentration of 0.5%. The number of seizures on each day was determined for each animal and calculated as percent of the baseline. The mean (±SEM) across animals in each treatment group was then calculated and plotted as a function of the days of treatment. […] Overall, the data was analyzed with a 2-way ANOVA comparing drug treatment against time and baseline rate of seizures. […] Post-hoc analysis determined that specifically on day 9 and 10 (*) the control was different than FDP-treated. Thus, oral administration of FDP has anticonvulsant activity against the generalized tonic-clonic seizures that are observed after pilocarpine-induced status epilepticus.

`O=C(COP(=O)(O)O)[C@@H](O)[C@H](O)[C@H](O)COP(=O)(O)O` [F1,6BP, Fructose-1,6-bisphosphate] was tested, and the “latency to the seizures” value ([1]; F1,6BP 0.25 g/kg, n=6) was 107 ± 6 s, the seizure duration ([1]; F1,6BP 0.25 g/kg, n=6) was 18 ± 2 s and the “latency to the seizures” value ([1]; F1,6BP 0.5 g/kg, n=6) was 161 ± 16 s. The seizure duration ([1]; F1,6BP 0.5 g/kg, n=6) was 12 ± 1 s, the “animals with no seizures” value ([1]; F1,6BP 1 g/kg) was “Three out of 8” and the “latency to the seizures” value ([1]; F1,6BP 1 g/kg, n=7) was 259 ± 32 s. The seizure duration ([1]; F1,6BP 1 g/kg, n=7) was 11 ± 3 s, the “seizures per day (percent of baseline) vs non-treatment control group” value ([2]; 2-way ANOVA) was “significantly different” and the “animals having a seizure by day 7” value ([2]; 7 animals) was 1.
